Measured values taken from patent US9808441B2, “Dietary supplement containing alkaline electrolyte buffers” (priority 1999, dated 2017).

Experiment: pH of dietary/therapeutic supplements, alkaline minerals and supplement compositions
Type: physicochemical
Conditions: for pH of alkaline mineral: lower value, 'and up depending upon the form' of the mineral
Text: It is noted that wherein pH is referred to for a dry or non-liquid material, it means where the material is mixed with a liquid, such as in the body of a user.
When an individual takes any one of these supplements with the meal, the body begins the digestion process of the supplement and the meal and the body begins to try to eliminate resulting waste due to needed raise in pH and to buffer the system. The body will utilize any buffer that can be found within the food, supplement, and after that will begin to draw the alkaline minerals from within the system itself.

[1] = dietary or therapeutic supplement prior to combination with alkaline minerals (table)

Compound	pH [1]	pH of alkaline mineral	pH (supplement or ingredient alone, without alkaline electrolytes (text; typical/normal value))
[Zn] [Zinc]	3.5	–	–
[Ca+2] [calcium]	–	≥ 8.28	–
O=C(O)c1cccnc1 [Niacin]	3.4	–	–

Further lines, results first:

pH [1]	pH of alkaline mineral	pH (supplement or ingredient alone, without alkaline electrolytes (text; typical/normal value))	Compound
6.1	–	–	Vitamin E
–	≥ 9.69	–	[K+] [potassium]
5.5	–	–	N[C@H]1C(O)O[C@H](CO)[C@@H](O)[C@@H]1O (stereo partly drawn) [Glucosamine]
–	≥ 7.20	–	[Mg+2] [magnesium]
3.23	–	about 3.23	O=C1O[C@H]([C@@H](O)CO)C(O)=C1O [Ascorbic Acid]
